Data on six molecules can be found in patent US20060014717A1, “Therapeutic compositions for use in prophylaxis or treatment of diarrheas” (priority 2002, published 2006).

Assay [1] relates to enteropathogenic wild type E. coli strain 37. Put plainly: Inhibition with soluble oligosaccharides in the chromatogram binding assay. Set-up: species or system Escherichia coli. The method, then:
FIG. 5. […] Radiolabeled wild type E. coli strain 37 was incubated with a mixture of globotriaose (1.5 mM), neolactotetraose (1.5 mM) and 6′sialyllactose (1.5 mM) in PBS for 1 h at room temperature. Thereafter the suspensions were utilized in the chromatogram binding assay. (A) Binding of radiolabeled E. coli strain 37. (B) Binding of E. coli strain 37 incubated with a mixture of globotriaose, neolactotetraose and 6′sialyllactose. Lanes 1-4 were serial dilutions of globotriaosylceramide (Galα4Galβ4Glc β1Cer) and NeuGc-neolactohexaosylceramide (NeuGcα3Galβ4GlcNAcβ3Gaβ4GlcNacβ3Galβ4Glcβ1Cer). Lane 1, 2 μg of each compound, lane 2, 1 μg of each compound, lane 3, 0.5 μg of each compound, lane 4, 0.2 μg of each compound. Lanes 5-8 were serial dilutions of NeuGc-neolactotetraosylceramide (NeuGcα3Galβ4GlcNAcβ3Galβ4Glcβ1Cer). Lane 5, 2 μg of each compound, lane 6, 1 μg of each compound, lane 7, 0.5 μg of each compound, lane 8, 0.2 μg of each compound. The glycosphingolipids were separated on aluminium-packed silica gel plates, using chloroform/methanol/water (60:35:8, by volume) as solvent system, and the binding assay was performed as described under “Experimental procedures”. Autoradiography was for 12 h.
(C) Binding curves obtained after quantification of binding by densitometry. The autoradiograms in (A) and (B) were analyzed using the NIH Image program. […]

Another assay deals with EPEC. Particulars: 100 mM; cited from earlier work.
A further assay concerns diarrheagenic E. coli. Put plainly: Inhibition with soluble oligosaccharides in the chromatogram binding assay. Set-up: species or system Escherichia coli. The method, then:
(§1) Glycosphingolipid Binding Assays—Binding of ^35S-labeled bacteria to glycosphingolipids on thin-layer chromatograms was done as reported (7). Dried chromatograms were dipped for 1 min in diethylether/n-hexane (1:5, by volume) containing 0.5% (w/v) polyisobutylmethacrylate (Aldrich Chem. Comp. Inc., Milwaukee, Wis.). After drying, the chromatograms were soaked in PBS containing 2% bovine serum albumin (w/v), 0.1% NaN3 (w/v) and 0.1% Tween 20 (by volume) for 2 h at room temperature. The chromatograms were subsequentely covered with radiolabeled bacteria diluted in PBS (2-5×10^6 cpm/ml). Incubation was done for 2 h at room temperature, followed by repeated washings with PBS. The chromatograms were thereafter autoradiographed using XAR-5 X-ray films (Eastman Kodak, Rochester, N.Y.) for 12 h. Autoradiograms were replicated using a CCD camera (Dage-MTI, Inc., Michigan City, Ind.), and analysis of the images was performed using the public domain NIH Image program (developed at the U.S. National Institutes of Health, and available at http://rsb.info.nih.eov/nih-imaee/).
The final concentrations of the inhibiting oligosaccharides on the TLC-plate were 0.3 mM. […] Thereafter the chromatogram binding assay was performed as described above.

Assay [2] relates to shiga toxina and shigalike toxin. Particulars: cited from earlier work.
Assay [3] has as its system Helicobacter pylori. The conditions noted are these: cited from earlier work.
Assay [4] has as its system Helicobacter pylori. Particulars: in vivo; cited from earlier work.
The next assay deals with E. coli EIEC CCUG 38092. Put plainly: Chromatogram binding assay, binding specificities of type strains. Set-up: species or system Escherichia coli. Particulars: prolonged sub-culture, 4 μg per lane. The method, then:
Culture Conditions and Labeling—The E. coli strains were cultured on Luria-agar with the addition of 10 μl ^35S-methionine (400 tici; Amersham Pharmacia Biotech, U.K.) at 37° C. for 12 h. The bacteria were harvested by scraping, washed three times with phosphate-buffered saline (PBS), pH 7.3, and thereafter resuspended in PBS (with or without 1% mannose (w/v)) to 1×10^8 CFU/ml. The specific activities of the suspensions were approximately 1 cpm per 100 bacteria.
Thin-Layer Chromatography—Thin-layer chromatography of glycosphingolipids was performed on glass- or aluminum-backed silica gel 60 HPTLC plates (Merck, Darmstadt, Germany), using chloroform/methanol/water 60:35:8 (by volume) as solvent system. Chemical detection was done with anisaldehyde (6).
as §1
However, several wild type diarrheagenic E. coli strains bind to sialic acid (see e.g. FIG. 6 and FIG. 3). […]

The test system of another assay is EPEC strain. The conditions noted are these: listed in decreasing order of activity; cited from earlier work.
For another assay, the system named is H. pylori CCUG 17874. Put plainly: Binding of 35S-labeled Helicobacter species to glycosphingolipids on thin-layer chromatograms. Set-up: species or system Helicobacter pylori; key: An significant darkening on the autoradiogram when 2 μg of the glycosphingolipid was applied on the thin-layer plate is denoted by +; − denotes no binding. The conditions noted are these: 2 μg (40 μg for the glycosphingolipid fraction) on TLC plates. An excerpt:
(§2) Gastric species examined in the present study included, Helicobacter mustelae ferret isolates from the National Collection of Type Cultures (NCTC) and the Culture Collection of the University of Gothenberg (CCUG), NCTC 12198/CCUG 25175 (equivalent strains from different sources tested), CCUG 23950 and CCUG 23951, Helicobacterfelis CCUG 28539 from a cat, in addition, H. pylori strains CCUG 17874, CCUG 17875 and a clinical isolate 119/95 were used. Enterohepatic helicobacters of animal origin were purchased from the CCUG including, Helicobacter canes CCUG 33835, Helicobacter bilis CCUG 38995, Helicobacter hepaticus CCUG 33637, and Helicobacterfennelliae (CCUG 18820).
(§3) Binding of Helicobacter spp. to glycosphingolipids, both acid and non-acidfractions. Glycosphingolipids were isolated by standard procedures (Karlsson, 1987). The identity of the purified glycosphingolipids was confirmed by mass spectrometry (Samuelsson et al., 1990), proton NMR spectroscopy (Koerner et al., 1983) and degradation studies (Stellner et al., 1973; Yang and Hakomori, 1971).
(§4) Mixtures of glycosphingolipids (40 μg/lane) or pure compounds (2 μg/lane) were subsequently separated using thin-layer chromatography (TLC) on glass- or aluminum-backed silica gel 60 HPTLC plates (Merck, Darmstadt, Germany), with chloroform/methanot/water (60:35:8, by volume) as solvent system. Chemical detection was accomplished by anisaldehyde (Waldi, 1962). Helicobacter spp. were subjected to ^35S-labeling (Angstrom et al., 1998) and suspended in PBS (10^8 CFU/ml) with a specific activity of approximately 1 cpm per 100 organisms. Binding of the labeled-bacteria to glycosphingolipids separated by TLC was achieved using a bacterial-overlay technique coupled with autoradiography detection using XAR-5 X-ray films (Eastman Kodak, Rochester, N.Y.) as previously described (Hansson et al., 1985).

In another assay the test system is H. pylori CCUG 17875. The description is as above. The arrangement: species or system Helicobacter pylori; key: An significant darkening on the autoradiogram when 2 μg of the glycosphingolipid was applied on the thin-layer plate is denoted by +; − denotes no binding. The conditions noted are these: 2 μg (40 μg for the glycosphingolipid fraction) on TLC plates.
From the text: as §2, §3, §4

Another assay relates to H. felis CCUG 28539. The assay is described as above. The arrangement: species or system Helicobacter felis; key: An significant darkening on the autoradiogram when 2 μg of the glycosphingolipid was applied on the thin-layer plate is denoted by +; − denotes no binding. The conditions noted are these: 2 μg (40 μg for the glycosphingolipid fraction) on TLC plates.
From the text: as §2, §3, §4

In a further assay the test system is H. canis CCUG 33835. The assay is described as above. The arrangement: species or system Helicobacter canis; key: An significant darkening on the autoradiogram when 2 μg of the glycosphingolipid was applied on the thin-layer plate is denoted by +; − denotes no binding. The conditions noted are these: 2 μg (40 μg for the glycosphingolipid fraction) on TLC plates.
From the text: as §2, §3, §4

A further assay deals with H. hepaticus CCUG 33637. Described as above. The arrangement: species or system Helicobacter hepaticus; key: An significant darkening on the autoradiogram when 2 μg of the glycosphingolipid was applied on the thin-layer plate is denoted by +; − denotes no binding. The conditions noted are these: 2 μg (40 μg for the glycosphingolipid fraction) on TLC plates.
From the text: as §2, §3, §4

A further assay concerns H. mustelae 25715. Described as above. Set-up: species or system Helicobacter mustelae; key: An significant darkening on the autoradiogram when 2 μg of the glycosphingolipid was applied on the thin-layer plate is denoted by +; − denotes no binding. Particulars: 2 μg (40 μg for the glycosphingolipid fraction) on TLC plates.
From the text: as §2, §3, §4

Assay [5] deals with H. mustelae CCUG 23950 & 23951. The assay is described as above. Set-up: species or system Helicobacter mustelae; key: An significant darkening on the autoradiogram when 2 μg of the glycosphingolipid was applied on the thin-layer plate is denoted by +; − denotes no binding. The conditions noted are these: 2 μg (40 μg for the glycosphingolipid fraction) on TLC plates.
From the text: as §2, §3, §4

The test system of a further assay is H. bilis CCUG 38995. The assay is described as above. The arrangement: species or system Helicobacter bilis; key: An significant darkening on the autoradiogram when 2 μg of the glycosphingolipid was applied on the thin-layer plate is denoted by +; − denotes no binding. The conditions noted are these: 2 μg (40 μg for the glycosphingolipid fraction) on TLC plates.
From the text: as §2, §3, §4

`CC(=O)NC1C(O)CC(OCC2OC(OC3C(CO)OC(O)C(O)C3O)C(O)C(O)C2O)(C(=O)O)OC1C(O)C(O)CO` (stereo not shown) [6′sialyllactose, NeuNAcα6Galβ4Glc]: in [1], the “Inhibition of binding to NeuGcα3-neolactotetraosylceramide” value was “inhibited”.

As for `CC(=O)N[C@H]1C(O)O[C@H](CO)[C@H](O)[C@@H]1O` (stereo partly shown) [N-acetylgalactosamine], in the assay on EPEC, the “Inhibition of EPEC binding to HeLa cells” value is recorded as “inhibited”.

Take `OC[C@H]1O[C@H](O[C@@H]2[C@H](O)[C@@H](O)[C@H](O[C@H]3[C@H](O)[C@@H](O)C(O)O[C@@H]3CO)O[C@@H]2CO)[C@H](O)[C@@H](O)[C@H]1O` (stereo partly shown) [globotriaose, Galα4Galβ4Glc]: the “Inhibition of non-toxigenic diarrhea causing E. coli by monovalent oligosaccharide” value in the assay with diarrheagenic E. coli (concentration of 0.3 mM) is “effect is seen”. Also, the “Inhibition of binding to globotriaosylceramide” value in the assay on diarrheagenic E. coli (preincubation 1.5 mM, final concentration 0.3 mM) is “Inhibition of binding”. In addition, the “Inhibition of toxin with monovalent inhibitor” value in assay [2] was “Minor effects”.

With `CC(=O)N[C@H]1[C@H]([C@H](O)[C@H](O)CO)O[C@@](O[C@H]2[C@@H](O)[C@@H](CO)O[C@@H](O[C@H]3[C@H](O)[C@@H](O)C(O)O[C@@H]3CO)[C@@H]2O)(C(=O)O)C[C@@H]1O` (stereo partly shown) [sialyl-lactose], the “Inhibition of Helicobacter pylori binding to human gastrointestinal cell lines” value in the assay on Helicobacter pylori [3] is listed as “inhibits”. For the same molecule, in the assay on Helicobacter pylori [4], the “Efficacy in a rhesus monkey animal model of the infection” value is on record as “effective”.

With GalNAcβ3Galα4Galβ4Glcβ1Cer [No. 12], in the assay on E. coli EIEC CCUG 38092, the “Binding of E. coli CCUG 38092 to pure glycosphingolipids after sub-culture” value was “remain”. The “Binding of an EPEC strain to commercial glycolipids” value with EPEC strain is reported as “observed to bind”. Besides, the “Binding of glycosphingolipids to H.pylori 17874” value in the assay on H. pylori CCUG 17874 was “−”. The “Binding of glycosphingolipids to H.pylori 17875” value in the assay on H. pylori CCUG 17875 is given as “−”. Also, the “Binding of glycosphingolipids to H.felis 28539” value in the assay with H. felis CCUG 28539 is listed as “−”. Besides, the “Binding of glycosphingolipids to H.canis 33835” value with H. canis CCUG 33835 is “−”. Moreover, the “Binding of glycosphingolipids to H.hepaticus 33637” value with H. hepaticus CCUG 33637 was “−”. The “Binding of glycosphingolipids to H.mustelae 25715” value in the assay on H. mustelae 25715 is recorded as “−”. Also, in [5], the “Binding of glycosphingolipids to H.mustelae 23950 & 23951” value is “−”. Also, the “Binding of glycosphingolipids to H.bilis 38995” value in the assay with H. bilis CCUG 38995 is “−”.

With “Galβ3(Fucα4)GlcNAcβ3Galβ4Glcβ1Cer [No. 24]”, the “Binding of glycosphingolipids to H.pylori 17874” value in the assay with H. pylori CCUG 17874 is reported as “−”. The “Binding of glycosphingolipids to H.pylori 17875” value in the assay with H. pylori CCUG 17875 is reported as “−”. The “Binding of glycosphingolipids to H.felis 28539” value in the assay with H. felis CCUG 28539 is recorded as “−”. Moreover, in the assay on H. canis CCUG 33835, the “Binding of glycosphingolipids to H.canis 33835” value was “−”. Also, the “Binding of glycosphingolipids to H.hepaticus 33637” value in the assay on H. hepaticus CCUG 33637 was “−”. For the same molecule, in the assay on H. mustelae 25715, the “Binding of glycosphingolipids to H.mustelae 25715” value is on record as “−”. In addition, the “Binding of glycosphingolipids to H.mustelae 23950 & 23951” value in [5] is on record as “−”. Besides, the “Binding of glycosphingolipids to H.bilis 38995” value in the assay on H. bilis CCUG 38995 is listed as “−”.
